Data taken from patent publication USRE48461E1, “Modulation of androgen receptor expression” (Ionis Pharmaceuticals, Inc., priority 2012, dated 2021).
Oligonucleotides are written 5' to 3', each unit as a sugar letter and its base; * is a phosphorothioate linkage, no mark a phosphodiester; rarer units and linkages stand in square brackets, end groups in braces. Plain capitals give the bases only. k = constrained ethyl (cEt); [5mC] = 5-methylcytosine; d = 2'-deoxy (DNA)

Key:
[1] = system: AR mRNA; assay: Antisense inhibition of human AR in HuVEC cells, single concentration (electroporation, qRT-PCR RTS3559); assay type: cell-based
How it was run: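 HuVEC cells electroporated with antisense oligonucleotides at a single concentration. AR mRNA quantified by qRT-PCR using human primer-probe set RTS3559 and normalised to total RNA content by RIBOGREEN.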

[2] = system: full-length AR; assay: Western blot of full-length AR in MDV3100-resistant C4-2B cells; assay type: cell-based, human; conditions: C4-2B MR cells (Example 16)
Procedure: ISIS 549372, ISIS 549434, and ISIS 554221 at 1 μM concentration of antisense oligonucleotide were each added to the culture media at 1 μM concentration for free uptake by the cells. After a treatment period of 2 days, cells were harvested in RIPA buffer containing protease inhibitors. The presence of bands for full-length AR, as well as the variant form, AR-V7, was detected by western blot using AR antibody (N-20, Santa Cruz).
Western analysis of full-length AR, as well as the AR-V7 variant, was also conducted in a manner similar to the assay described above.

[3] = system: AR full-length mRNA; assay: AR full-length mRNA in CWR22-RV1 cells (RNAiMax, RTS3559); assay type: cell-based, human; conditions: 6 days
Procedure: CWR22-RV1 cells were plated and transfected using RNAiMax reagent (Life Technologies) with ISIS oligonucleotides at 1.7 nM, 5.0 nM, 16.7 nM, or 50 nM concentrations. ISIS 347526 was included as a negative control. After a treatment period of 6 days, the target reduction and proliferative capacity of the cancer cells was measured.
Antisense inhibition of AR full-length mRNA was measured with the RTS3559 primer probe set. The results are presented in Table 63 as percent inhibition relative to non-treated cells. The reduction in V7 splice variant of the AR mRNA was also measured by RT-PCR using SYBR Green staining (Hu, R. et al., Cancer Res. 2009. 69: 16-22). The results are presented in Table 64, as percent reduction, relative to non-treated cells. Cell proliferation was measured with CellTiter 96® AQueous One Solution Cell Proliferation kit (Promega), following the manufacturer's instructions. Results are presented in Table 65 as percent inhibition of proliferation, relative to non-treated cells.

[4] = system: C4-2B cells; assay: C4-2B cell proliferation by free uptake (MTT); assay type: cell-based, human; conditions: day 6
Procedure: Cells were plated at a concentration of 1,000 cells/well in 96-well plates to measure cell proliferation, and at 4,000 cells/well to measure target reduction. ISIS 549458, ISIS 549372, ISIS 549434, and ISIS 554221 were added individually at 0.04 μM, 0.20 μM, 1.00 μM, or 5.00 μM. After an incubation period of 24 hrs, mRNA levels were measured using hAR_LTS00943.
On day 6, cells plated for measuring proliferation were incubated with MTT reagent until the development of color. Color intensity was measured using a spectrophotometer at 490 nm.

[5] = cynomolgus monkey, in vivo
Procedure: (§1) Prior to the study, the monkeys were kept in quarantine for a 30-day period, during which the animals were observed daily for general health. The monkeys were 2-4 years old and weighed between 2 and 4 kg. Thirteen groups of four randomly assigned male cynomolgus monkeys each were injected subcutaneously with ISIS oligonucleotide or PBS. PBS solution or ISIS oligonucleotides, at a dose of 40 mg/kg, were administered with a loading regimen consisting of four doses on the first week of the study (days 1, 3, 5, and 7), followed by a maintenance regimen consisting of once weekly administration starting on Day 14 (weeks 2 to 6). Subcutaneous injections were performed in clock-wise rotations at 4 sites on the back; one site per dose. The injection sites were delineated by tattoo, while sedated using ketamine, and were separated by a minimum of 3 cm.
The concentrations of the full-length oligonucleotide in the kidney and the liver of select treatment groups were measured. The method used is a modification of previously published methods (Leeds et al., 1996; Geary et al., 1999) which consist of a phenol-chloroform (liquid-liquid) extraction followed by a solid phase extraction.

[6] = cynomolgus monkey, in vivo, sc, 40 mg/kg
Procedure: The monkeys were 2-4 years old and weighed between 2 and 4 kg. Thirteen groups of four randomly assigned male cynomolgus monkeys each were injected subcutaneously with ISIS oligonucleotide or PBS. PBS solution or ISIS oligonucleotides, at a dose of 40 mg/kg, were administered with a loading regimen consisting of four doses on the first week of the study (days 1, 3, 5, and 7), followed by a maintenance regimen consisting of once weekly administration starting on Day 14 (weeks 2 to 6). Subcutaneous injections were performed in clock-wise rotations at 4 sites on the back; one site per dose. The injection sites were delineated by tattoo, while sedated using ketamine, and were separated by a minimum of 3 cm.
To evaluate any inflammatory effect of ISIS oligonucleotides in cynomolgus monkeys, the monkeys were fasted overnight. Approximately, 1.5 mL of blood samples were collected from all the study groups on day 44. Blood was collected in tubes without anticoagulant for serum separation. The tubes were kept at room temperature for a minimum of 90 min and then centrifuged at 3,000 rpm for 10 min. C-reactive protein (CRP), which is synthesized in the liver and which serves as a marker of inflammation, was measured on day 43 using a Toshiba 120FR NEO chemistry analyzer (Toshiba Co., Japan). Complement C3 was also measured similarly, and the data is presented as a percentage of baseline values.

[7] = cynomolgus monkey, in vivo, sc, 40 mg/kg; remark: listed apart in the source
[8] = Body and organ weights in cynomolgus monkeys; conditions: cynomolgus monkey, 40 mg/kg s.c.
[9] = Liver function markers in cynomolgus monkey plasma; conditions: 40 mg/kg s.c., day 44
[10] = Hematological parameters in cynomolgus monkeys; conditions: cynomolgus monkey, 40 mg/kg s.c., day 44
Procedure: as §1
To evaluate any effect of ISIS oligonucleotides in cynomolgus monkeys on hematologic parameters, blood samples of approximately 0.5 mL of blood was collected day 44 from each of the available study animals in tubes containing K2-EDTA. Samples were analyzed for red blood cell (RBC) count, white blood cells (WBC) count, platelet count, hemoglobin content and hematocrit, using an ADVIA2120i hematology analyzer (SIEMENS, USA).

[11] = system: LMR20 cells; assay: MDV3100 IC50 in LMR20 clone compared to parental LnCaP cells; assay type: cell-based, human
[12] = Table 19, 500 nM oligonucleotide, electroporation, approximately 24 hours, relative to untreated control
[13] = Table 20, 500 nM oligonucleotide, electroporation, approximately 24 hours, relative to untreated control
[14] = Table 21, 500 nM oligonucleotide, electroporation, approximately 24 hours, relative to untreated control
[15] = Table 22, 500 nM oligonucleotide, electroporation, approximately 24 hours, relative to untreated control
[16] = Table 23, 500 nM oligonucleotide, electroporation, approximately 24 hours, relative to untreated control
[17] = Table 24, 1,000 nM oligonucleotide, electroporation, approximately 24 hours, relative to untreated control
[18] = Table 25, 1,000 nM oligonucleotide, electroporation, approximately 24 hours, relative to untreated control
[19] = Table 27, 1,000 nM oligonucleotide, electroporation, approximately 24 hours, relative to untreated control
[20] = Table 28, 1,000 nM oligonucleotide, electroporation, approximately 24 hours, relative to untreated control

Compound	% inhibition ([1]; 500 nM ASO, ~24 h, Table 16) [%]	% inhibition ([1]; 500 nM ASO, ~24 h, Table 17) [%]	% inhibition ([1]; 500 nM ASO, ~24 h, Table 18) [%]	% inhibition ([1]; 1,000 nM ASO, ~24 h, Table 13) [%]	% inhibition ([1]; 1,000 nM ASO, ~24 h, Table 26) [%]	% inhibition [1, 12] [%]	% inhibition [1, 13] [%]	% inhibition [1, 14] [%]	% inhibition [1, 15] [%]	% inhibition [1, 16] [%]	% inhibition [1, 17] [%]	% inhibition [1, 18] [%]	% inhibition [1, 19] [%]	% inhibition [1, 20] [%]	Oligonucleotide concentration, Liver ([5]; sc, 40 mg/kg) [μg/g tissue]	C3 (% of baseline) [6]	CRP [6] [mg/dL]	Body Wt [7] [kg]	Heart weight [7] [g]	Kidney weight [7] [g]	also measured
549372 (kA*kA*kG*dT*dT*dG*dT*dA*dG*dT*dA*dG*dT*k[5mC]*kG*k[5mC]) [compound 549372]	47	40	26	64	58	39	23	37	46	25	63	59	70	54	–	–	–	–	–	–	% inhibition ([1]; 500 nM ASO, electroporation, ~24 h, Table 1): 92%
GTTGATTTAATGGTTG (all phosphorothioate, sugars by position not given here; further chemistry not fully specified) [ISIS 549458]	–	–	–	–	–	–	–	–	–	–	–	–	–	–	–	–	–	–	–	–	levels of full-length AR (Western analysis) [2]: reduced levels of full-length AR and AR-V7; Percent inhibition of AR full-length mRNA ([3]; dose 5.0 nM): 41%; Percent inhibition of AR full-length mRNA ([3]; dose 16.7 nM): 61%; Percent inhibition of AR full-length mRNA ([3]; dose 50.0 nM): 78%; Percent inhibition of cell proliferation ([4]; dose 0.04 μM): 7%; Percent inhibition of cell proliferation ([4]; dose 0.20 μM): 31%; Percent inhibition of cell proliferation ([4]; dose 1.00 μM): 45%; Percent inhibition of cell proliferation ([4]; dose 5.00 μM): 41%
TGATTTAATGGTTGCA [ISIS 569236] (cEt/MOE gapmer chemistry, further chemistry not given here)	–	–	–	–	–	–	–	–	–	–	–	–	–	–	898	103 % of baseline	2.6	2.4	8.4	12	Oligonucleotide concentration, Kidney ([5]; sc, 40 mg/kg): 1282 μg/g tissue; Liver weight [7]: 56 g; Mesenteric lymph nodes weight [7]: 2.4 g; Spleen weight [7]: 3.2 g
TTGATTTAATGGTTGC [ISIS 560131] (MOE and (S)-cEt gapmer chemistry, further chemistry not given here)	–	–	–	–	–	–	–	–	–	–	–	–	–	–	793	100 % of baseline	1.7	2.4	9.8	12	tolerability: body and organ weights [8]: well tolerated in terms of the body and organ weights of the monkeys; K/L ratio [5]: 2.6; tolerability: liver function markers [9]: well tolerated in terms of the liver function markers; tolerability: hematology [10]: well tolerated in terms of the hematology of the monkeys; Liver weight [7]: 58 g; Mesenteric lymph nodes weight [7]: 2.0 g; Spleen weight [7]: 2.5 g
549458 (kG*kT*kT*dG*dA*dT*dT*dT*dA*dA*dT*dG*dG*kT*kT*kG) [compound 549458]	60	46	48	87	79	50	54	47	39	51	88	76	76	65	–	–	–	–	–	–	% inhibition ([1]; 250 nM ASO, ~24 h, Table 7): 71%; % inhibition ([1]; 500 nM ASO, electroporation, ~24 h, Table 2): 95%; % inhibition ([1]; 500 nM ASO, ~24 h, Table 5): 94%
CNC(=O)c1ccc(N2C(=S)N(c3ccc(C#N)c(C(F)(F)F)c3)C(=O)C2(C)C)cc1F [MDV3100, 4-(3-(4-cyano-3-(trifluoromethyl)phenyl)-5,5-dimethyl-4-oxo-2-thioxoimidazolidin-1-yl)-2-fluoro-N-methylbenzamide, reference compound]	–	–	–	–	–	–	–	–	–	–	–	–	–	–	–	–	–	–	–	–	increase in IC50 of MDV3100 in LMR20 compared to parental LnCaP cells [11]: approximately ten-fold increase in IC50
